Laboratory results as given in ChEMBL document CHEMBL1144685, “Naphthamides as novel and potent vascular endothelial growth factor receptor tyrosine kinase inhibitors: design, synthesis, and evaluation” (J Med Chem, 2008).

Columns and labels:
[1] = test system: NHDF; experiment: Inhibition of PDGF-induced proliferation of NHDF cells; type: functional, cell-based; settings: Homo sapiens
[2] = target: Cytochrome P450 2D6 (Homo sapiens, UniProt P10635)
[3] = test system: Mus musculus; experiment: Antitumor activity against human HT29 cell xenografted CD1 nu/nu mouse assessed as inhibition of tumor growth at 3 mg/kg, po; type: functional; settings: CD1, HT-29
[4] = target: Vascular endothelial growth factor receptor 1 (Homo sapiens, UniProt P17948)
[5] = test system: NIH3T3; experiment: Inhibition of CSF1-induced proliferation of BALB/c mouse 3T3 cells; type: functional, cell-based
[6] = target: Aurora kinase B (Homo sapiens, UniProt Q96GD4); experiment: Inhibition of Aurora B
[7] = Cmax in human HT29 cell xenografted CD1 nu/nu mouse at 3 mg/kg, po; type: ADME, organism-based, HT-29; parameters: dose 3 mg/kg, route oral; settings: in vivo
[8] = Inhibition of anti-CD3-induced proliferation of human T cells; type: functional, cell-based; settings: T-cell
[9] = Inhibition of histone H3 phosphorylation in human HeLa cells; type: cell-based
[10] = Cmax in human HT29 cell xenografted CD1 nu/nu mouse at 30 mg/kg, po; type: ADME, organism-based, HT-29; parameters: dose 30 mg/kg, route oral; settings: in vivo
[11] = Clearance in Sprague-Dawley rat at 2 mg/kg, iv; type: ADME, organism-based; parameters: dose 2 mg/kg, route intravenous; settings: in vivo
[12] = Cmax in Sprague-Dawley rat at 5 mg/kg, po; type: ADME, organism-based; parameters: dose 5 mg/kg, route oral; settings: in vivo
[13] = AUC (0 to 24 hrs) in Sprague-Dawley rat at 5 mg/kg, po; type: ADME, organism-based; parameters: time < 24 hr, dose 5 mg/kg, route oral; settings: plasma
[14] = test system: Rattus norvegicus; experiment: Inhibition of VEGF-induced angiogenesis in VEGF soaked disk implanted Sprague-Dawley rat cornea assessed as number of blood vessels intersecting the midpoint between the disk and limbus after 7 days; type: functional; settings: 168 h
[15] = target: Tyrosine-protein kinase Lck (Homo sapiens, UniProt P06239)
[16] = Inhibition of Erk phosphorylation in human A375 cells; type: cell-based; settings: A-375
[17] = AUC (0 to 24 hrs) in human HT29 cell xenografted CD1 nu/nu mouse at 3 mg/kg, po; type: ADME, organism-based, HT-29; parameters: time < 24 hr, dose 3 mg/kg, route oral; settings: in vivo
[18] = Protein binding in rat plasma; type: ADME, cell-free; settings: read-out: PPB (converted)
[19] = Oral bioavailability in Sprague-Dawley rat at 5 mg/kg; type: ADME, organism-based; settings: in vivo
[20] = test system: HUVEC; experiment: Inhibition of FGF-induced proliferation of HUVEC cells; type: functional, cell-based; settings: Homo sapiens
[21] = Intrinsic clearance in rat liver microsomes; type: ADME, Microsome
[22] = Protein binding in mouse plasma; type: ADME, cell-free; settings: read-out: PPB (converted)
[23] = Protein binding in dog plasma; type: ADME, cell-free, Canis lupus familiaris; settings: read-out: PPB (converted)
[24] = test system: Liver microsomes; experiment: Metabolic stability assessed as covalent binding in human liver microsomes; type: ADME, Microsome
[25] = test system: Plasma; experiment: Plasma concentration in CD1 nu/nu mouse at 100 mg/kg, po; type: ADME, organism-based; parameters: dose 100 mg/kg, route oral; settings: in vivo
[26] = target: Serine/threonine-protein kinase B-raf (Homo sapiens, UniProt P15056, V600E); experiment: Inhibition of b-Raf V600E
Sequence of Serine/threonine-protein kinase B-raf (P15056 2-766 V600E limits assumed): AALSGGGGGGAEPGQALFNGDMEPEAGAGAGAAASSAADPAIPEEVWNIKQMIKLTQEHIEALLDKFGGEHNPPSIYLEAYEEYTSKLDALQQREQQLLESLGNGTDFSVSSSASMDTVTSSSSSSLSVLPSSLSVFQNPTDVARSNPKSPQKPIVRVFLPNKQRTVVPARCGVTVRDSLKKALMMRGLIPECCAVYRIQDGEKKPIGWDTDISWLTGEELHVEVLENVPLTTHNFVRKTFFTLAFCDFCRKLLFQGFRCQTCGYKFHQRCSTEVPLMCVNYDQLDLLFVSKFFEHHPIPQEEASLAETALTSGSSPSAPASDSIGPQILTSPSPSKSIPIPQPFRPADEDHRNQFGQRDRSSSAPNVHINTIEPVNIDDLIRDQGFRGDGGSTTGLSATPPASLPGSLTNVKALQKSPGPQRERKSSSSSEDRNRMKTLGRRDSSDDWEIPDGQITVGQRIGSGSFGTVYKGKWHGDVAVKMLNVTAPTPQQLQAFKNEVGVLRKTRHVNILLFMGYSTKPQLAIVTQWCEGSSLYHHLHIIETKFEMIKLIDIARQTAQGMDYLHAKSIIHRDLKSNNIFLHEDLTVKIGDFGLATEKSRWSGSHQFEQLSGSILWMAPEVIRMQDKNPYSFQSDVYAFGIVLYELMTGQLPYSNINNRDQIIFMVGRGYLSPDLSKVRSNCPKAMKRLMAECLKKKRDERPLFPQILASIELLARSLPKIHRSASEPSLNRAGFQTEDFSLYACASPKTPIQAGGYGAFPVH

[27] = Cmax in VEGF soaked disk implanted Sprague-Dawley rat; type: ADME, organism-based; settings: in vivo
[28] = AUC (0 to 24 hrs) in human HT29 cell xenografted CD1 nu/nu mouse at 10 mg/kg, po; type: ADME, organism-based, HT-29; parameters: time < 24 hr, dose 10 mg/kg, route oral; settings: in vivo
[29] = test system: HUVEC; experiment: cells; settings: Homo sapiens
Description: Inhibition of bFGF-induced proliferation of HUVEC cells

[30] = Intrinsic clearance in human liver microsomes; type: ADME, Microsome
[31] = AUC in VEGF soaked disk implanted Sprague-Dawley rat; type: ADME, organism-based; settings: plasma
[32] = test system: Plasma; experiment: Plasma concentration in BALB/c mouse at 30 mg/kg, po; type: ADME, organism-based; parameters: dose 30 mg/kg, route oral; settings: in vivo
[33] = target: Fibroblast growth factor receptor 2 (Homo sapiens, UniProt P21802); experiment: Inhibition of FGFR2
Sequence of Fibroblast growth factor receptor 2 (P21802 whole entry): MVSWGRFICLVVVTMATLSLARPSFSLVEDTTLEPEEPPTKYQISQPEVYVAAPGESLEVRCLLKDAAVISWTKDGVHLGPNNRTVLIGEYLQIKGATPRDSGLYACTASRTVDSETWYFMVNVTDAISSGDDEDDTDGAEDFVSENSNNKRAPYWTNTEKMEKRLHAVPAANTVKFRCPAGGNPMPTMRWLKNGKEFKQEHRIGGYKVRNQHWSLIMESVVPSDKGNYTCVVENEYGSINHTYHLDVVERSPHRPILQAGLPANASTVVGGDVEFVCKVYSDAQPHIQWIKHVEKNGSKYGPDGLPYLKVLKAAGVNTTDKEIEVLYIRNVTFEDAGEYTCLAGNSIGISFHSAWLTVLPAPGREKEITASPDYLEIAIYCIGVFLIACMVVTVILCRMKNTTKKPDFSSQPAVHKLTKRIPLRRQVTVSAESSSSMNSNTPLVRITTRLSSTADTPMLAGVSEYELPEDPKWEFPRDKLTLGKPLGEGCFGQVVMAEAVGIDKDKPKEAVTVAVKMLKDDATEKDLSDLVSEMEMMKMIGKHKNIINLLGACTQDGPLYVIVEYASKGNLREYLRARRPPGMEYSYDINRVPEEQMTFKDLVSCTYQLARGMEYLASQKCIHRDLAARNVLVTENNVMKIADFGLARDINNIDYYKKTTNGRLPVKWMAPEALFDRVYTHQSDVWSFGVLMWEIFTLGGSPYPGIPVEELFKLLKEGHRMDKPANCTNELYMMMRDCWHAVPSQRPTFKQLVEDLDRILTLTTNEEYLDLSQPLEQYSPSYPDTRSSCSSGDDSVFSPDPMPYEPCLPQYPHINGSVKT

[34] = AUC (0 to 24 hrs) in human HT29 cell xenografted CD1 nu/nu mouse at 30 mg/kg, po; type: ADME, organism-based, HT-29; parameters: time < 24 hr, dose 30 mg/kg, route oral; settings: in vivo
[35] = target: Macrophage colony-stimulating factor 1 receptor (Homo sapiens, UniProt P07333); experiment: Inhibition of c-FMS
Sequence of Macrophage colony-stimulating factor 1 receptor (P07333 whole entry): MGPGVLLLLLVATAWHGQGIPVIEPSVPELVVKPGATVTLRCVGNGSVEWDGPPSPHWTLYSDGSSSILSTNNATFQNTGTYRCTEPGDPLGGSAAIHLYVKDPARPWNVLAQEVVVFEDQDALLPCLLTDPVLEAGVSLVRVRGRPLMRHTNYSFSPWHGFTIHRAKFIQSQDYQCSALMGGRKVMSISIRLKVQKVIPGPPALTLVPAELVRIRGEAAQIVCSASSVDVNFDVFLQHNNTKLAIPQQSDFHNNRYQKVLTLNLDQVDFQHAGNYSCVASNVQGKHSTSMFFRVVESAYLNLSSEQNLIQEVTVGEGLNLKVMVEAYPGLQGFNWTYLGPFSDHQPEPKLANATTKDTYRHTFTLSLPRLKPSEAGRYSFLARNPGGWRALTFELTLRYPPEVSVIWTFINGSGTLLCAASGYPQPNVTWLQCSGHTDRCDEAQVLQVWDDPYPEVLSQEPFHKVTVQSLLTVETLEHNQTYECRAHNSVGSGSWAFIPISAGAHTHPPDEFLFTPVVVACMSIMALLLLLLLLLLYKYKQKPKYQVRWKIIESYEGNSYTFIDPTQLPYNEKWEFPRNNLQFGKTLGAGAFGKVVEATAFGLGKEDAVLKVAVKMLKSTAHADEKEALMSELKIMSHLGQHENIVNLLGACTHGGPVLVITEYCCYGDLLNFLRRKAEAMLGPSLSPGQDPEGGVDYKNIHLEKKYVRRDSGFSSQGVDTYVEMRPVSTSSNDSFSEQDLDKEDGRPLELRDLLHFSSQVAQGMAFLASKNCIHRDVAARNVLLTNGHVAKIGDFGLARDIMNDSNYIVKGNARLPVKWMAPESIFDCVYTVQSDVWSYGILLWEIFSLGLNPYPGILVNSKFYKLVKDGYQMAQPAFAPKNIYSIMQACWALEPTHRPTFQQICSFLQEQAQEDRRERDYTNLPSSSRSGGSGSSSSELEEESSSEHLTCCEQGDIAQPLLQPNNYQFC

[36] = target: Vascular endothelial growth factor receptor 3 (Homo sapiens, UniProt P35916)
Sequence of Vascular endothelial growth factor receptor 3 (P35916 whole entry): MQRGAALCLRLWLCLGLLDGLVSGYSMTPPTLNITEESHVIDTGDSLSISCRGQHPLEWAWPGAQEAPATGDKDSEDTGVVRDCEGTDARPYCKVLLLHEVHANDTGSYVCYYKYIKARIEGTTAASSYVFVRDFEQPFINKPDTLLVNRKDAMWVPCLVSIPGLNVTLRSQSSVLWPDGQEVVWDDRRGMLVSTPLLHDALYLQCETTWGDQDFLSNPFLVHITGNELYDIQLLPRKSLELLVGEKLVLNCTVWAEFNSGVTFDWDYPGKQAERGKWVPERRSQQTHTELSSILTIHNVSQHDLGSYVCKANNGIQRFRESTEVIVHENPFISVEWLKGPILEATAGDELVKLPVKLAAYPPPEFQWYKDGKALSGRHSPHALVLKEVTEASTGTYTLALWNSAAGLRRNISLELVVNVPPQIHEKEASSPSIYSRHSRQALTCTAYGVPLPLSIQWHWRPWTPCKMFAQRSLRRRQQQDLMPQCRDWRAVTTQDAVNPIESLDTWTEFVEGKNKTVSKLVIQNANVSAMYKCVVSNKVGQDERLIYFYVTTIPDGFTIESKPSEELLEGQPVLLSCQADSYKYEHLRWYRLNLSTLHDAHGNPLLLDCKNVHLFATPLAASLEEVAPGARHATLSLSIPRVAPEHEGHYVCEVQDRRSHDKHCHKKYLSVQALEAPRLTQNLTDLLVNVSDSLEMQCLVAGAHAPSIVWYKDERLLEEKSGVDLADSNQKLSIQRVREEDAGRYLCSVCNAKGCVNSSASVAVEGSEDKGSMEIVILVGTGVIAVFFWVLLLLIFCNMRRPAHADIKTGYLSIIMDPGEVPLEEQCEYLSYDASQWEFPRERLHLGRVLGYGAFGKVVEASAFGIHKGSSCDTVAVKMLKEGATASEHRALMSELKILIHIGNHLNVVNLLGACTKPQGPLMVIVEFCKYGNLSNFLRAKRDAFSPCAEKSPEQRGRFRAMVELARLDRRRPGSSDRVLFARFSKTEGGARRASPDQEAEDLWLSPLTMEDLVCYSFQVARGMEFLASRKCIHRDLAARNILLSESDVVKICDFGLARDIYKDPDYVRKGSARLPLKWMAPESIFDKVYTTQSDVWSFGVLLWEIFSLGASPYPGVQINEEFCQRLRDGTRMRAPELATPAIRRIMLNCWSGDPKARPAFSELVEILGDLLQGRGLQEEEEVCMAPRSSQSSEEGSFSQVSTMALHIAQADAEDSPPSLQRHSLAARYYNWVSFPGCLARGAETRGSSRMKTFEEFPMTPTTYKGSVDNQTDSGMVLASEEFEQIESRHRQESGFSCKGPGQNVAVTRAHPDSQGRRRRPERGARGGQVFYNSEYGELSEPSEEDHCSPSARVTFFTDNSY

[37] = Cmax in human HT29 cell xenografted CD1 nu/nu mouse at 10 mg/kg, po; type: ADME, organism-based, HT-29; parameters: dose 10 mg/kg, route oral; settings: in vivo
[38] = target: Cytochrome P450 3A4 (Homo sapiens, UniProt P08684)
Sequence of Cytochrome P450 3A4 (P08684 whole entry): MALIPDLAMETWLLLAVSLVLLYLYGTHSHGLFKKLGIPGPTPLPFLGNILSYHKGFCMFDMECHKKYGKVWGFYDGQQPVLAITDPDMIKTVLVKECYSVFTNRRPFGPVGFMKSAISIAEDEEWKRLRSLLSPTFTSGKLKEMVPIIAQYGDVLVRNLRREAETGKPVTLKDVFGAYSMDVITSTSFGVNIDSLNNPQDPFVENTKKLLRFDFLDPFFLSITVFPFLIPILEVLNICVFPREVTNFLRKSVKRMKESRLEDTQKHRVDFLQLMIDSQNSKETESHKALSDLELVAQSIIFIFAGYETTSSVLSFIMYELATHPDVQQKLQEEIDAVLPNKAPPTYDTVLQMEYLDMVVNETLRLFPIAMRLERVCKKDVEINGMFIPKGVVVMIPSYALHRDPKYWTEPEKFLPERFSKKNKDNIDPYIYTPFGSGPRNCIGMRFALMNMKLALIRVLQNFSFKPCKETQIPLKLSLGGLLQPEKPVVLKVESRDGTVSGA

[39] = Half life in Sprague-Dawley rat at 2 mg/kg, iv; type: ADME, organism-based; parameters: dose 2 mg/kg, route intravenous; settings: in vivo
[40] = test system: Plasma; experiment: Plasma concentration in CD1 nu/nu mouse at 30 mg/kg, po; type: ADME, organism-based; parameters: dose 30 mg/kg, route oral; settings: in vivo
[41] = test system: Plasma; experiment: Plasma concentration in BALB/c mouse at 10 mg/kg, po; type: ADME, organism-based; parameters: dose 10 mg/kg, route oral; settings: in vivo
[42] = Mean retention time in Sprague-Dawley rat at 2 mg/kg, iv; type: ADME, organism-based; parameters: dose 2 mg/kg, route intravenous; settings: in vivo
[43] = test system: Plasma; experiment: Plasma concentration in BALB/c mouse at 3 mg/kg, po; type: ADME, organism-based; parameters: dose 3 mg/kg, route oral; settings: in vivo
[44] = Volume of distribution at steady state in Sprague-Dawley rat at 2 mg/kg, iv; type: ADME, organism-based; parameters: dose 2 mg/kg, route intravenous; settings: in vivo, read-out: Vdss
[45] = Mean retention time in mouse at 3 mg/kg, iv; type: ADME, organism-based; parameters: dose 3 mg/kg, route intravenous; settings: in vivo
[46] = Half life in mouse at 3 mg/kg, iv; type: ADME, organism-based; parameters: dose 3 mg/kg, route intravenous; settings: in vivo
[47] = Mean retention time in dog at 1 mg/kg, iv; type: ADME, organism-based, Canis lupus familiaris; parameters: dose 1 mg/kg, route intravenous; settings: in vivo
[48] = Clearance in mouse at 3 mg/kg, iv; type: ADME, organism-based; parameters: dose 3 mg/kg, route intravenous; settings: in vivo
[49] = Half life in dog at 1 mg/kg, iv; type: ADME, organism-based, Canis lupus familiaris; parameters: dose 1 mg/kg, route intravenous; settings: in vivo
[50] = Clearance in cynomolgus monkey at 1 mg/kg, iv; type: ADME, organism-based, Macaca fascicularis; parameters: dose 1 mg/kg, route intravenous; settings: in vivo
[51] = Volume of distribution at steady state in cynomolgus monkey at 1 mg/kg, iv; type: ADME, organism-based, Macaca fascicularis; parameters: dose 1 mg/kg, route intravenous; settings: in vivo, read-out: Vdss
[52] = Volume of distribution at steady state in mouse at 3 mg/kg, iv; type: ADME, organism-based; parameters: dose 3 mg/kg, route intravenous; settings: in vivo, read-out: Vdss
[53] = Oral bioavailability in cynomolgus monkey at 10 mg/kg, po; type: ADME, organism-based, Macaca fascicularis; settings: in vivo
[54] = Volume of distribution at steady state in dog at 1 mg/kg, iv; type: ADME, organism-based, Canis lupus familiaris; parameters: dose 1 mg/kg, route intravenous; settings: in vivo, read-out: Vdss
[55] = Mean retention time in cynomolgus monkey at 1 mg/kg, iv; type: ADME, organism-based, Macaca fascicularis; parameters: dose 1 mg/kg, route intravenous; settings: in vivo
[56] = Clearance in dog at 1 mg/kg, iv; type: ADME, organism-based, Canis lupus familiaris; parameters: dose 1 mg/kg, route intravenous; settings: in vivo
[57] = Oral bioavailability in mouse at 10 mg/kg, po; type: ADME, organism-based; settings: in vivo
[58] = Half life in cynomolgus monkey at 1 mg/kg, iv; type: ADME, organism-based, Macaca fascicularis; parameters: dose 1 mg/kg, route intravenous; settings: in vivo
[59] = Oral bioavailability in dog at 10 mg/kg; type: ADME, organism-based, Canis lupus familiaris; settings: in vivo

Sequence of Cytochrome P450 2D6 (P10635 whole entry): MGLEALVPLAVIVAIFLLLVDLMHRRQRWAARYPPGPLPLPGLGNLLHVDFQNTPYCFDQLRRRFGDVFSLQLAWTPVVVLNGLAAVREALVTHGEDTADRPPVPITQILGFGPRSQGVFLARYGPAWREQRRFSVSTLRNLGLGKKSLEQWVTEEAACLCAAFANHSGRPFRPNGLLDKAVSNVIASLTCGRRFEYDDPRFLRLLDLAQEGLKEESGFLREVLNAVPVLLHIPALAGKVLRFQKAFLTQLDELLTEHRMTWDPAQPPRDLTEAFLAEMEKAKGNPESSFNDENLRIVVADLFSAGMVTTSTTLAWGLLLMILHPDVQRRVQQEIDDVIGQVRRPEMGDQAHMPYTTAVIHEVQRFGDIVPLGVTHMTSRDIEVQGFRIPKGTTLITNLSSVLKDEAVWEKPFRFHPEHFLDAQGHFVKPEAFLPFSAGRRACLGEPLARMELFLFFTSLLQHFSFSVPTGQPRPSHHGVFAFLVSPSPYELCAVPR

COc1cc2nccc(Oc3ccc4c(C(=O)Nc5ccc(Cl)cc5)cccc4c3)c2cc1OC
IC50 [1]: 25 nM | IC50 [2]: > 50000 nM | inhibition in vivo at 3 mg/kg [3]: 74% | IC50 [4]: 0.5 nM | IC50 [5]: 25 nM | IC50 [6]: > 1000 nM | Cmax [7]: 500 nM | IC50 [8]: > 20000 nM | IC50 [9]: 1100 nM | Cmax [10]: 3900 nM | clearance [11]: 3.33 mL/min/kg | Cmax [12]: 420 ng/mL | AUC(0-t) at 24 h [13]: 5250 ng·h/mL | ED50 [14]: 0.1 mg/kg | IC50 [15]: 38 nM | IC50 [16]: > 1000 nM | AUC(0-t) at 24 h [17]: 6.2 µM·h | fraction unbound [18]: 0.02 | bioavailability [19]: 21% | IC50 [20]: > 1140 nM | microsomal CLint [21]: 50 µL/min/mg | fraction unbound [22]: 0.014 | fraction unbound [23]: 0.026 | Stability [24]: < 100 pM/mg/h | concentration [25]: 10300 nM | IC50 [26]: 40 nM | Cmax [27]: 200 nM | AUC(0-t) at 24 h [28]: 24.1 µM·h | IC50 [29]: > 1100 nM | microsomal CLint [30]: 30 µL/min/mg | AUC [31]: 1.3 µM·h | concentration [32]: 1500 nM | IC50 [33]: > 20000 nM | AUC(0-t) at 24 h [34]: 48.4 µM·h | IC50 [35]: 20 nM | IC50 [36]: 2 nM | Cmax [37]: 2200 nM | IC50 [38]: > 50000 nM | half-life [39]: 24 h | concentration [40]: 4000 nM | concentration [41]: 490 nM | MRT [42]: 31 h | concentration [43]: 160 nM | Vd [44]: 7.3 L/kg

COc1cc2nccc(Oc3ccc4c(C(=O)Nc5ccc(Cl)cc5)cccc4c3)c2cc1OC.CS(=O)(=O)O
MRT [45]: 23 h | half-life [46]: 17 h | MRT [47]: 66 h | clearance [48]: 3.33 mL/min/kg | half-life [49]: 48 h | clearance [50]: 3.33 mL/min/kg | Vd [51]: 4.3 L/kg | Vd [52]: 4.8 L/kg | bioavailability [53]: 62% | Vd [54]: 6.7 L/kg | MRT [55]: 22 h | clearance [56]: 1.67 mL/min/kg | bioavailability [57]: 24% | half-life [58]: 56 h | bioavailability [59]: 72%
